Results as given in patent US9572817B2, “Use of androgens for vascular regeneration and endothelial repair” (THE HEART RESEARCH INSTITUTE LTD., priority 2008, dated 2017).
Read-outs that look alike come from different tables or passages of the source.

Tests used:
[1] = intramuscular injection; cited from earlier work
[2] = test system: Human Umbilical Endothelial Cells (HUVEC); assay: EC migration (scratch assay and boyden chamber assay); format: cell-based
Experimental: (§1) The effect of the non-aromatizable androgen dihydrotestosterone was assessed on three key angiogenic processes: endothelial cell (EC) migration, EC proliferation and EC tubulogenesis. Cells were treated with 0, 4, 40 or 400 nM dihydrotestosterone (DHT, a potent androgen) with and without the androgen-receptor antagonist hydroxyflutamide (HF).
EC migration was assessed via a scratch assay and boyden chamber assay. Human Umbilical Endothelial Cells (HUVEC) monolayers were grown in the presence of varying doses of DHT±Hydroxyflutamide (HF), and either scratched or placed on top of permeable membranes. EC migration across the culture surface or through the membranes was assessed at 24 h and 6 h respectively via light and fluorescence microscopy respectively.

HUVECs [3] = assay: EC proliferation (direct counting of cell numbers and MTS Assay); format: cell-based, Human
Experimental: as §1
EC proliferation was assessed using two methods: direct counting of cell numbers and the MTS Assay. HUVECs were seeded at a density of 1×10^4 cells/ml (12 well plates for counting, 96 well plates for MTS assay) in endothelial growth media in the presence of varying doses DHT±Hydroxyflutamide (HF). After 48 h, cells were either harvested from 12 well plates and counted or incubated with MTS reagent in the 96 well plates with absorbance measured subsequently at 490 nm measured.

HUVECs [4] = assay: EC tubulogenesis (co-culture assay of fibroblasts and ECs); format: cell-based, Human; details: for EC tubulogenesis vs. 100% control value: donor cells; for tubule formation vs. 100% control value: male EC, chronic exposure (72 h)
Experimental: The effect of the non-aromatizable androgen dihydrotestosterone was assessed on three key angiogenic processes: endothelial cell (EC) migration, EC proliferation and EC tubulogenesis.
Co-cultures were grown in the presence of DHT±Hydroxyflutamide (HF). After 72 h, co-cultures were assessed using immunohistochemistry for EC specific markers and image analysis software.

Male C57B16/J mice [5] = details: castrate+DHT male mice, after 7 days; control 0.39±0.03
Excerpt: (§2) Male C57B16/J mice were either castrated or sham-castrated after reaching sexual maturity (6 weeks). After a period of 10 days, 50% of both castrated and sham-castrated mice received a 1 cm subcutaneous silastic implant containing DHT.

Male C57B16/J mice [6] = details: castrate+DHT
Excerpt: as §2
Mononuclear cells were harvested from the spleens and bone marrow of all animals and assessed via cell culture and flow cytometry. Cells were and stained with fluorescein isothiocyanate-lectin and/or 1,1(-dioctadecyl-3,3,3(,3(-tetramethylindocarbocyanine (DiI)-labelled, acetylated low-density lipoprotein (Vasa M, et al. Number and migratory activity of circulating endothelial progenitor cells inversely correlate with risk factors for coronary artery disease. Circ Res. 2001; 89:e1-e7).

For `CCCCCCC(=O)O[C@H]1CC[C@H]2[C@@H]3CCC4=CC(=O)CC[C@]4(C)[C@H]3CC[C@]12C` [Testosterone enanthate], the “time to peak serum testosterone levels after administration” value [1] is given as 24 h.
With `C[C@]12CCC(=O)C[C@@H]1CC[C@@H]1[C@@H]2CC[C@]2(C)[C@@H](O)CC[C@@H]12` [DHT, 5α-dihydrotestosterone] the “EC migration vs. 100% control value” ([2]; donor cells, DHT 4 nM) was 90±5%, the “EC migration vs. 100% control value” ([2]; donor cells, DHT 40 nM) was 96±5% and the “EC migration vs. 100% control value” ([2]; donor cells, DHT 400 nM) was 93±8%. For the same compound, the “EC migration vs. 100% control value” ([2]; male EC, DHT 4 nM, after 24 h) was 138±7%, the “EC migration vs. 100% control value” ([2]; male EC, DHT 40 nM, after 24 h) was 280±23% and the “EC migration vs. 100% control value” ([2]; male EC, DHT 400 nM, after 24 h) was 306±32%. The “EC proliferation vs. 100% control value” (HUVECs [3]; donor cells, DHT 4 nM) was 92±5%, the “EC proliferation vs. 100% control value” (HUVECs [3]; donor cells, DHT 40 nM) was 92±3% and the “EC proliferation vs. 100% control value” (HUVECs [3]; donor cells, DHT 400 nM) was 89±6%. For the same compound, the “EC proliferation vs. 100% control value” (HUVECs [3]; male EC, DHT 4 nM, after 48 h) was 112±8%, the “EC proliferation vs. 100% control value” (HUVECs [3]; male EC, DHT 40 nM, after 48 h) was 118±5% and the “EC proliferation vs. 100% control value” (HUVECs [3]; male EC, DHT 400 nM, after 48 h) was 127±4%. For the same compound, the “EC tubulogenesis vs. 100% control value” (HUVECs [4]; DHT 4 nM) was 92±3%, the “EC tubulogenesis vs. 100% control value” (HUVECs [4]; DHT 40 nM) was 90±3% and the “EC tubulogenesis vs. 100% control value” (HUVECs [4]; DHT 400 nM) was 92±3%. The “tubule formation vs. 100% control value” (HUVECs [4]; DHT 4 nM) was 115±7%, the “tubule formation vs. 100% control value” (HUVECs [4]; DHT 40 nM) was 137±5% and the “tubule formation vs. 100% control value” (HUVECs [4]; DHT 400 nM) was 157±6%. The “Laser Doppler Perfusion Index (LDPI) ischemic/non-ischemic ratio” value (Male C57B16/J mice [5]) was 0.6±0.06, the spleen angiogenic cells (Male C57B16/J mice [6]; absence of ischaemia, control 15.4±1, castrated 10.3±0.9) was 10±0.9 Angiogenic cells/×200 field and the spleen angiogenic cells (Male C57B16/J mice [6]; presence of ischaemia, control 22±1.7, castrated 16±0.8) was 26±1.3 Angiogenic cells/×200 field. For the same compound, the “bone marrow angiogenic cells” value (Male C57B16/J mice [6]; presence of ischaemia, control 60±2.4, castrate 26±1.7) was 36±3 Angiogenic cells/×200 field.
